Measured values: patent US6743798B1, “Substituted pyrazole derivatives condensed with six-membered heterocyclic rings” (Bayer Aktiengesellschaft, priority 1998, dated 2004)
Like-named read-outs stand apart in the source and are kept apart here. Values belong to the compound of their own block, whether it stands above or below them.

How the values were obtained:
[1] = test system: rabbit aortal rings preconcentrated with phenylephrine; assay: Vasorelaxant action in vitro; assay type: cell-based; conditions: Oryctolagus cuniculus, read-out: IC50 [μM] vasorelaxant action
Procedure: (§1) To determine the cardiovascular action, the following investigations were carried out: In in vitro investigations on the isolated and on cells of vascular origin, the effect on guanylate cyclase-dependent cGMP formation was tested with and without NO donor. The anti-aggregatory properties were shown on human platelets stimulated with collagen. The vasorelaxant action was determined in rabbit aortal rings preconcentrated with phenylephrine. The hypotensive action was investigated in anaesthetized and awake rats.
Rabbits are anaesthetized by a blow to the neck and exanguinated. The aorta is removed, freed from adhering tissue, divided into 1.5 mm wide rings and individually transferred under a pretension into 5 ml organ baths containing a warm, carbogen-aerated Krebs-Henseleit solution at 37° C. of the following composition (mM): NaCl: 119; KCl: 4.8; CaCl2×2H2O: 1; MgSO4×7H2O; 1.4; KH2PO4: 1.2; NaHCO3: 25; glucose: 10. The contractility is detected using Statham UC2 cells, amplified and digitalized by means of A/D converters (DAS-1802 HC, Keithley Instruments Munich), and recorded in parallel on linear recorders. To produce a contraction, phenylephrin is added to the bath cumulatively in increasing concentration. […]

[2] = test system: anaesthetized rats; assay: Blood pressure measurements in anaesthetized rats; assay type: in vivo, rat
Procedure: Male Wister rats having a bodyweight of 300-350 g are anaesthetized with Thiopental (100 mg/kg i.p.). After tracheotomy, a catheter is inserted into the femoral artery for blood pressure measurement. The substances to be tested are administered orally in Transcutol, Cremophor EL, H2O (10%/20%/70%) in a volume of 1 ml/kg.

[3] = test system: human platelets stimulated with collagen; assay: Inhibition of platelet aggregation in vitro; assay type: cell-based; conditions: 10 min, collagen-induced aggregation, 10 min incubation at 37° C.
Procedure: as §1
To determine the platelet-aggregation, blood from healthy volunteers of both sexes was used. As an anticoagulant, 9 parts of blood were admixed to one part of 3.8% strength sodium citrate solution. The blood was centrifuged at 900 rpm for 20 min. The pH of the platelet-rich plasma obtained was adjusted to pH 6.5 using ACD solution (sodium citrate/citric acid/glucose). The platelets were subsequently centrifuged off and resuspended in buffer and once more centrifuged off. The platelet pellet was suspended in buffer and mixed with an additional 2 mmol/l of CaCl2.
To measure the aggregation, aliquots of the platelet suspension were incubated with the substance to be tested at 37° C. for 10 min.

[4] = test system: soluble guanylate cyclase; assay: Stimulation of soluble guanylate cyclase in primary endothelial cells; assay type: cell-based, pig; conditions: for Increase in the cGMP concentration (%): test substances final concentration 1 μM, 10 minutes, primary endothelial cells from pig aortas
Procedure: Primary endothelial cells were isolated from pig aortas by treatment with collagenase soln. The cells were then cultured in culture medium at 37 °C/5% CO2 until confluence was reached. For the investigations, the cells were passaged, inoculated into 24-well cell culture plates and subcultured until reaching confluence (˜2×10^5 cells/well). For the stimulation of endothelial guanylate cyclase, the culture medium was aspirated and the cells were washed once with Ringer solution. After removing the Ringer solution, the cells were incubated for 10 minutes at 37° C./5% CO2 in stimulation buffer with or without NO donor (sodium nitroprusside, SNP or DEA/NO 1 μM). […] After the incubation time had ended, the buffer solution was aspirated and cold buffer at 4° C. was added to the cells. The cells were then lysed at −20° C. for 16 hours. The supernatants containing the intracellular cGMP were then removed and the cGMP concentration was determined by means of the cGMP-SPA system (Amersham Buchler, Brunswick).

melting point: 215 °C
SMILES: NC(=O)c1cnc(-c2nn(Cc3ccccc3F)c3ncccc23)nc1N [Example 6]
Increase in the cGMP concentration (%) [4]: 600%

melting point: 181 °C
SMILES: Nc1nc(-c2nn(Cc3ccccc3F)c3ncccc23)ncc1CC(F)(F)F [Example 8]

The next lines start with the compound.

SMILES: Nc1nc(-c2nn(Cc3ccccc3F)c3ncccc23)nc(N)c1N1CCOCC1 [Example 16, 3-(4,6-Diamino-5-N-morpholinopyrimidin-2-yl)-1-(2-fluorobenzyl)-1H-pyrazolo[3,4-b]pyridine]
IC50 [1]: 0.2 µM | max. reduction in blood pressure (mm Hg) ([2]; 0.3 mg/kg p.o.): 21 mm Hg | max. reduction in blood pressure (mm Hg) ([2]; 1.0 mg/kg p.o.): 35 mm Hg | IC50 [3]: 0.06 µM | cGMP (pmol/well) ([4]; Ex. 16 0.1 μM): 5.1 pmol/well | cGMP (pmol/well) ([4]; Ex. 16 0.3 μM): 13.2 pmol/well | cGMP (pmol/well) ([4]; Ex. 16 1.0 μM): 20.8 pmol/well | cGMP (pmol/well) ([4]; Ex. 16 3.0 μM): 34.5 pmol/well | cGMP (pmol/well) ([4]; Ex. 16 10 μM): 47.7 pmol/well

SMILES: Cc1ccc(-c2nc(-c3nn(Cc4ccccc4F)c4ncccc34)ncc2C#N)cc1 [Example 14, 3-[5-Cyano-4-(4-methylphenyl)pyrimidin-2-yl]-1-(2-fluorobenzyl)-1H-pyrazolo[3,4-b]pyridine]
Increase in the cGMP concentration (%) [4]: >1000%

SMILES: CS(=O)(=O)c1cnc(-c2nn(Cc3ccccc3F)c3ncccc23)nc1N [Example 1, 3-(4-Amino-5-methylsulphonylpyrimidin-2-yl)-1-(2-fluorobenzyl)-1H-pyrazolo[3,4-b]pyridine]
IC50 ([1]; rabbit aorta rings, phenylephrin contraction reduced by 50%): 0.23 µM | Increase in the cGMP concentration (%) [4]: >1000%
